Assay results reported in patent US20180355390A1, “Method to produce L-methionine by a fermentative production” (Evonik Degussa GmbH, priority 2016, published 2018).
≈ marks a conversion by molar mass, not a printed value.

Experiments:
physchem [1] = settings: Residual solubility L-Methionine
Procedure: The amount of product in the fermentation medium or in the different downstream process fluxes such as supernatant, permeate or mother liquors of crystallization can be determined using a number of methods known in the art, for example, high performance liquid chromatography (HPLC) or gas chromatography (GC). For example the quantity of methionine obtained in the medium is measured by HPLC after OPA/FMOC derivatization using L-methionine (Fluka, Ref 64319) as a standard.
Different solvents were assayed on the fermentation concentrated supernatant issued from step ii) with the same ratio of 70% (solvent/(methionine containing fraction+solvent), in weight).

physchem [2] = experiment: physchem
Procedure: The methionine solubility at 35° C. is approximately 70 g/L. If the solution is concentrated to approximately 250 g/L, under a vacuum ensuring a temperature of 35° C., the solid methionine recovery yield is >70%. Under these conditions, and by virtue of the removal of the soluble impurities, the solid methionine crystallizes in the form of spongy spheres which are easy to separate from the mother liquors.
The fermentation supernatant issued from step ii) was concentrated to approximately 250 g·L^−1 and ethanol has been added at different proportions 0%, 30% and 70% (corresponding to the ratio solvent/(methionine containing fraction+solvent) in weight). The theoretical yield of recovery has been determined in function of ethanol content.

SMILES: CSCC[C@H](N)C(=O)O [L-methionine]
- solubility (physchem [1]; concentrated fermentation supernatant with added solvent, 4 °C, aqueous with cosolvent or surfactant or cyclodextrin, Ethanol, ratio 70% by weight): 4000 to 5000 µg/mL
- solubility (physchem [1]; concentrated fermentation supernatant with added solvent, 4 °C, aqueous with cosolvent or surfactant or cyclodextrin, Isopropanol, ratio 70% by weight): 4000 to 5000 µg/mL
- solubility (physchem [1]; concentrated fermentation supernatant with added solvent, 4 °C, aqueous with cosolvent or surfactant or cyclodextrin, Methanol, ratio 70% by weight): 5000 to 6000 µg/mL
- solubility (physchem [1]; concentrated fermentation supernatant with added solvent, aqueous with cosolvent or surfactant or cyclodextrin, 2-Butanone, ratio 70% by weight, room temperature): > 15000 µg/mL
- solubility (physchem [1]; concentrated fermentation supernatant with added solvent, aqueous with cosolvent or surfactant or cyclodextrin, Acetonitrile, ratio 70% by weight, room temperature): 5500 to 6500 µg/mL
- solubility (physchem [1]; concentrated fermentation supernatant with added solvent, aqueous with cosolvent or surfactant or cyclodextrin, Ethanol, ratio 70% by weight, room temperature): 5000 to 6000 µg/mL
- solubility (physchem [1]; concentrated fermentation supernatant with added solvent, aqueous with cosolvent or surfactant or cyclodextrin, Isopropanol, ratio 70% by weight, room temperature): 5000 to 6000 µg/mL
- solubility (physchem [1]; concentrated fermentation supernatant with added solvent, aqueous with cosolvent or surfactant or cyclodextrin, Methanol, ratio 70% by weight, room temperature): 7000 to 8000 µg/mL
- solubility (physchem [1]; concentrated fermentation supernatant, plasma or biological fluid, no solvent (Reference), room temperature): 65000 µg/mL (≈ 436 mM)
- solubility (physchem [2]; 35 °C): ~70000 µg/mL (≈ 469 mM)
- solubility (physchem [2]; 37 °C): ~70000 µg/mL (≈ 469 mM)
